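Protocol summary: plate cells (96-well), add compound at 5 concentrations, incubate 48 h, interpolate endpoints linearly. Here, GI50 denotes the concentration required for 50% inhibition of growth. Definition used: TGI = concentration required for complete inhibition of growth.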
Legend:
Test in all cases: NCI anticancer screen, dose series, 48 h
A498 renal = system: A498 renal
HL-60(TB) leukemia = system: HL-60(TB) leukemia
SF-539 CNS = system: SF-539 CNS
SW-620 colon = system: SW-620 colon
HCT-116 colon = system: HCT-116 colon
TK-10 renal = system: TK-10 renal
SK-OV-3 ovarian = system: SK-OV-3 ovarian
UACC-257 melanoma = system: UACC-257 melanoma
EKVX NSCLC = system: EKVX NSCLC
SF-268 CNS = system: SF-268 CNS
MCF7 breast = system: MCF7 breast
M14 melanoma = system: M14 melanoma
786-0 renal = system: 786-0 renal
NCI/ADR-RES ovarian = system: NCI/ADR-RES ovarian
SNB-19 CNS = system: SNB-19 CNS
HOP-62 NSCLC = system: HOP-62 NSCLC
UO-31 renal = system: UO-31 renal
LOX IMVI melanoma = system: LOX IMVI melanoma
SK-MEL-5 melanoma = system: SK-MEL-5 melanoma
SK-MEL-28 melanoma = system: SK-MEL-28 melanoma
HCT-15 colon = system: HCT-15 colon
MALME-3M melanoma = system: MALME-3M melanoma
OVCAR-8 ovarian = system: OVCAR-8 ovarian
NCI-H226 lung = system: NCI-H226 lung
ACHN renal = system: ACHN renal
CCRF-CEM leukemia = system: CCRF-CEM leukemia
SR leukemia = system: SR leukemia
RPMI-8226 leukemia = system: RPMI-8226 leukemia
OVCAR-5 ovarian = system: OVCAR-5 ovarian
MDA-MB-468 breast = system: MDA-MB-468 breast
NCI-H522 lung = system: NCI-H522 lung
BT-549 breast = system: BT-549 breast
COLO 205 colon = system: COLO 205 colon
SF-295 CNS = system: SF-295 CNS
T-47D breast = system: T-47D breast
UACC-62 melanoma = system: UACC-62 melanoma
IGROV1 ovarian = system: IGROV1 ovarian
HS 578T breast = system: HS 578T breast
SK-MEL-2 melanoma = system: SK-MEL-2 melanoma
HOP-92 NSCLC = system: HOP-92 NSCLC
PC-3 prostate = system: PC-3 prostate
NCI-H23 lung = system: NCI-H23 lung
KM12 colon = system: KM12 colon
A549 NSCLC = system: A549 NSCLC
OVCAR-3 ovarian = system: OVCAR-3 ovarian
CAKI-1 renal = system: CAKI-1 renal
SNB-75 CNS = system: SNB-75 CNS
MOLT-4 leukemia = system: MOLT-4 leukemia
SN12C renal = system: SN12C renal
DU-145 prostate = system: DU-145 prostate
HT29 colon = system: HT29 colon
HCC-2998 colon = system: HCC-2998 colon
K-562 leukemia = system: K-562 leukemia
U251 CNS = system: U251 CNS
MDA-MB-231 breast = system: MDA-MB-231 breast
NCI-H460 lung = system: NCI-H460 lung
OVCAR-4 ovarian = system: OVCAR-4 ovarian
RXF 393 renal = system: RXF 393 renal
MDA-MB-435 = system: MDA-MB-435

## COc1ccsc1/C=N/NC(=O)c1[nH]c2ccc(Br)cc2c1-c1ccccc1
A498 renal
  GI50: 15.3 µM
  TGI: 53.3 µM
HL-60(TB) leukemia
  GI50: 0.223 µM
  TGI: 0.605 µM
SF-539 CNS
  GI50: 0.233 µM
  TGI: 0.584 µM
SW-620 colon
  GI50: 0.413 µM
  TGI: > 100 µM
HCT-116 colon
  GI50: 0.369 µM
  TGI: 5.51 µM
TK-10 renal
  GI50: 7.01 µM
  TGI: 63.9 µM
SK-OV-3 ovarian
  GI50: 0.5 µM
  TGI: 34.7 µM
UACC-257 melanoma
  GI50: 2.91 µM
  TGI: > 56.9 µM
EKVX NSCLC
  GI50: 0.502 µM
  TGI: > 100 µM
SF-268 CNS
  GI50: 0.997 µM
  TGI: 39.6 µM
MCF7 breast
  GI50: 0.332 µM
  TGI: 16.5 µM
M14 melanoma
  GI50: 0.316 µM
  TGI: 13.7 µM
786-0 renal
  GI50: 0.563 µM
  TGI: 12.6 µM
NCI/ADR-RES ovarian
  GI50: 0.268 µM
  TGI: 0.739 µM
SNB-19 CNS
  GI50: 0.511 µM
  TGI: > 100 µM
HOP-62 NSCLC
  GI50: 0.468 µM
  TGI: > 45.1 µM
UO-31 renal
  GI50: 0.579 µM
  TGI: 34.8 µM
LOX IMVI melanoma
  GI50: 0.519 µM
  TGI: 13.7 µM
SK-MEL-5 melanoma
  GI50: 0.315 µM
  TGI: 1.15 µM
SK-MEL-28 melanoma
  GI50: 0.925 µM
  TGI: 40.8 µM
HCT-15 colon
  GI50: 0.372 µM
  TGI: 16.4 µM
MALME-3M melanoma
  GI50: 0.538 µM
  TGI: 25.7 µM
OVCAR-8 ovarian
  GI50: 0.395 µM
NCI-H226 lung
  GI50: 0.934 µM
  TGI: 9.95 µM
ACHN renal
  GI50: 0.71 µM
  TGI: 20.7 µM
CCRF-CEM leukemia
  GI50: 0.311 µM
  TGI: 5.01 µM
SR leukemia
  GI50: 0.369 µM
  TGI: > 100 µM
RPMI-8226 leukemia
  GI50: 0.388 µM
  TGI: 3.87 µM
OVCAR-5 ovarian
  GI50: 0.513 µM
  TGI: 68.2 µM
MDA-MB-468 breast
  GI50: 0.273 µM
  TGI: 0.87 µM
NCI-H522 lung
  GI50: 0.187 µM
  TGI: 0.781 µM
BT-549 breast
  GI50: 0.739 µM
  TGI: 5.26 µM
COLO 205 colon
  GI50: 0.373 µM
  TGI: 1.32 µM
SF-295 CNS
  GI50: 0.317 µM
  TGI: 13.4 µM
T-47D breast
  GI50: 0.449 µM
  TGI: 25.7 µM
UACC-62 melanoma
  GI50: 0.306 µM
  TGI: 17.5 µM
IGROV1 ovarian
  GI50: 0.582 µM
  TGI: 20.5 µM
HS 578T breast
  GI50: 0.338 µM
  TGI: 65.2 µM
SK-MEL-2 melanoma
  GI50: 0.308 µM
  TGI: 10.7 µM
HOP-92 NSCLC
  GI50: 4.06 µM
  TGI: 29.3 µM
PC-3 prostate
  GI50: 0.41 µM
  TGI: 39.7 µM
NCI-H23 lung
  GI50: 0.568 µM
  TGI: 25.2 µM
KM12 colon
  GI50: 0.428 µM
  TGI: 13.8 µM
A549 NSCLC
  GI50: 0.634 µM
  TGI: > 54.2 µM
OVCAR-3 ovarian
  GI50: 0.407 µM
  TGI: 15.3 µM
CAKI-1 renal
  GI50: 0.464 µM
  TGI: > 56.6 µM
SNB-75 CNS
  GI50: 0.311 µM
  TGI: 2.26 µM
MOLT-4 leukemia
  GI50: 0.403 µM
  TGI: 11.5 µM
SN12C renal
  GI50: 0.517 µM
  TGI: 8.11 µM
DU-145 prostate
  GI50: 0.454 µM
  TGI: > 100 µM
HT29 colon
  GI50: 0.271 µM
  TGI: 0.698 µM
HCC-2998 colon
  GI50: 0.622 µM
  TGI: 14.5 µM
K-562 leukemia
  GI50: 0.282 µM
  TGI: > 55.7 µM
U251 CNS
  GI50: 0.41 µM
  TGI: 20.5 µM
MDA-MB-231 breast
  GI50: 0.437 µM
  TGI: 13 µM
NCI-H460 lung
  GI50: 0.362 µM
  TGI: 11 µM
OVCAR-4 ovarian
  GI50: 6.34 µM
  TGI: > 100 µM

## COc1cc(-c2ccc3ncnc(N4CCc5ccc(Cl)cc54)c3c2)cnc1Cl
A498 renal
  GI50: 1.54 µM
  TGI: 7.16 µM
HL-60(TB) leukemia
  GI50: 2.1 µM
  TGI: 9.97 µM
SF-539 CNS
  GI50: 3.06 µM
  TGI: 11.6 µM
SW-620 colon
  GI50: 3.06 µM
  TGI: > 100 µM
HCT-116 colon
  GI50: 2.89 µM
  TGI: > 100 µM
TK-10 renal
  GI50: 2.12 µM
  TGI: 7.87 µM
SK-OV-3 ovarian
  GI50: 3.84 µM
  TGI: > 100 µM
UACC-257 melanoma
  GI50: 6.32 µM
  TGI: > 100 µM
EKVX NSCLC
  GI50: 1.94 µM
  TGI: > 100 µM
SF-268 CNS
  GI50: 3.29 µM
  TGI: > 100 µM
M14 melanoma
  GI50: 3.88 µM
  TGI: > 100 µM
786-0 renal
  GI50: 3.22 µM
  TGI: 27.7 µM
NCI/ADR-RES ovarian
  GI50: 2.23 µM
  TGI: > 100 µM
SNB-19 CNS
  GI50: 3.78 µM
  TGI: 83.6 µM
HOP-62 NSCLC
  GI50: 6.12 µM
  TGI: 81.3 µM
UO-31 renal
  GI50: 1.14 µM
  TGI: > 100 µM
LOX IMVI melanoma
  GI50: 2.97 µM
  TGI: 29.5 µM
SK-MEL-5 melanoma
  GI50: 2.15 µM
  TGI: 9.36 µM
SK-MEL-28 melanoma
  GI50: 3.84 µM
  TGI: 46.7 µM
HCT-15 colon
  GI50: 3.17 µM
  TGI: > 100 µM
MALME-3M melanoma
  GI50: 4.6 µM
  TGI: 43.3 µM
OVCAR-8 ovarian
  GI50: 3.64 µM
  TGI: > 100 µM
NCI-H226 lung
  GI50: 2.39 µM
  TGI: 21.5 µM
ACHN renal
  GI50: 2.4 µM
  TGI: 14.4 µM
CCRF-CEM leukemia
  GI50: 5.7 µM
  TGI: > 100 µM
SR leukemia
  GI50: 4.08 µM
  TGI: > 100 µM
RPMI-8226 leukemia
  GI50: 4.44 µM
  TGI: > 100 µM
OVCAR-5 ovarian
  GI50: 3.29 µM
  TGI: > 100 µM
MDA-MB-468 breast
  GI50: 1.26 µM
  TGI: 4.47 µM
NCI-H522 lung
  GI50: 2.12 µM
  TGI: 10.1 µM
COLO 205 colon
  GI50: 4.21 µM
  TGI: > 100 µM
SF-295 CNS
  GI50: 2.62 µM
  TGI: 24.6 µM
RXF 393 renal
  GI50: 1.78 µM
  TGI: 6.77 µM
UACC-62 melanoma
  GI50: 2.25 µM
  TGI: > 100 µM
HS 578T breast
  GI50: 1.84 µM
  TGI: 7.41 µM
SK-MEL-2 melanoma
  GI50: 5.12 µM
  TGI: > 100 µM
HOP-92 NSCLC
  GI50: 2.11 µM
  TGI: > 100 µM
PC-3 prostate
  GI50: 2.52 µM
  TGI: > 100 µM
NCI-H23 lung
  GI50: 2.91 µM
  TGI: > 100 µM
KM12 colon
  GI50: 3.99 µM
  TGI: > 100 µM
A549 NSCLC
  GI50: 3.03 µM
  TGI: > 100 µM
OVCAR-3 ovarian
  GI50: 2.49 µM
  TGI: > 100 µM
MDA-MB-435
  GI50: 3.32 µM
  TGI: > 100 µM
CAKI-1 renal
  GI50: 1.66 µM
  TGI: 12.7 µM
SNB-75 CNS
  GI50: 1.56 µM
  TGI: 7 µM
MOLT-4 leukemia
  GI50: 3.36 µM
  TGI: > 100 µM
SN12C renal
  GI50: 3.34 µM
  TGI: > 100 µM
DU-145 prostate
  GI50: 3.21 µM
  TGI: > 100 µM
HT29 colon
  GI50: 2.88 µM
  TGI: 16.4 µM
HCC-2998 colon
  GI50: 3.46 µM
  TGI: > 100 µM
K-562 leukemia
  GI50: 3.83 µM
  TGI: > 100 µM
U251 CNS
  GI50: 4.71 µM
  TGI: > 100 µM
MDA-MB-231 breast
  GI50: 3.94 µM
  TGI: 20.8 µM
NCI-H460 lung
  GI50: 2.95 µM
  TGI: > 100 µM
OVCAR-4 ovarian
  GI50: 3.12 µM
  TGI: 95.5 µM

From PubChem BioAssay (NCI)
